In patent US20250129055A1, “GLUCOSIDE DERIVATIVE, AND PREPARATION METHOD THEREFOR AND APPLICATION THEREOF” (BEIJING INCREASE INNOVATIVE DRUG CO., LTD., priority 2020, published 2025):

System: Alloxan diabetic mice
Experiment: Efficacy in Alloxan diabetes model mice
Format: in vivo
Settings: for Concentration of blood glucose 2 h: 2 h after administration; for Concentration of blood glucose 4 h: 4 h after administration; for Concentration of blood glucose 8 h: 8 h after administration; for Concentration of blood glucose 24 h: 24 h after administration; for Concentration of blood glucose 0 h: before administration; for Concentration of blood glucose (random): random blood glucose on the 28th day; for HbA1c: 32nd day
Procedure: Test Example 3 Research on efficacy of the compounds of the present invention in in vivo anti-Alloxan diabetes model mice
Alloxan diabetes mice were used. Normal ICR mice (male, 22-24 g) were randomly divided into groups including normal group, model group (con), positive control group and test compound groups with four different doses (n=11), and the mice without injection of Alloxan were in a normal control group (n=10).
Mice were administered with drugs by gavage.
Single administration: Mice were fasted for 3 h, and then the fasting blood (0 min) was collected. Then the mice in each group were administered with drugs by gavage. After 1 h, they were administered with a glucose ([…]) solution. Blood was collected at 30 min, 60 min, 120 min, and 180 min after the glucose administration. The blood glucose level was measured using glucose oxidase-peroxidase method, and the area under the blood glucose curve was calculated.
On the 6th day of continuous administration, under the condition of no fasting, blood samples were collected from mice before administration (0 h), 1 h, 2 h, 4 h, 8 h and 24 h after administration to measure blood glucose.
On the 9th day of continuous administration, the mice were fasted for 1 h and then administered with drugs by gavage. An oral glucose tolerance test (OGTT) was performed 1 h after administration.
On the 16th day of continuous administration, under the condition of no fasting, urine samples were collected from mice 1 h after administration to measure the concentration of urine glucose.
On the 22nd day of continuous administration, the mice were fasted for 1 h and then administered with drugs by gavage, and blood samples were collected to measure the fasting blood glucose 1 h after administration.
On the 28th day of continuous administration, under the condition of no fasting, blood samples were collected from mice 1 h after administration to measure the random blood glucose.
On the 32nd day of continuous administration, under the condition of no fasting, blood samples were collected from mice to measure glycosylated hemoglobin (HbA1c).
The data were expressed as mean±SEM (n=10-11). The comparison between multiple groups was performed by one-way analysis of variance, and the comparison between two groups was performed by Dunnett's t test. Statistical graphing was performed using Graphpad Prism software.

[1] = 0.5 mg/kg, non-fasting, 6th day
[2] = 1.0 mg/kg, non-fasting, 6th day
[3] = 2.0 mg/kg, non-fasting, 6th day

`CS[C@H]1O[C@@H](c2ccc(C)c(Cc3ccc4c(c3)OCCO4)c2)[C@H](O)[C@@H](O)[C@@H]1O` (stereo in doubt) [Compound 2, 2-[3-(2,3-dihydro-1,4-benzodioxin-6-ylmethyl)-4-methylphenyl]-6-(methylthio)oxane-3,4,5-triol] was tested, and the “Concentration of blood glucose 30 min” value (0.5 mg/kg, OGTT on the 9th day) was 290.3 ± 13.0 mg/dL, the “Concentration of blood glucose 60 min” value (0.5 mg/kg, OGTT on the 9th day) was 231.0 ± 10.1 mg/dL and the “Concentration of blood glucose 120 min” value (0.5 mg/kg, OGTT on the 9th day) was 175.0 ± 12.0 mg/dL. The “AUC of blood glucose” value (0.5 mg/kg, non-fasting, 6th day, 0-24 h) was 12059 ± 372.3 mg·h/dL, the “Concentration of blood glucose 1 h” value (0.5 mg/kg, non-fasting, 6th day, 1 h after administration) was 488.6 ± 15.9 mg/dL and the “Concentration of blood glucose 2 h” value [1] was 474.7 ± 18.1 mg/dL. The “Concentration of blood glucose 4 h” value [1] was 386.0 ± 21.8 mg/dL, the “Concentration of blood glucose 8 h” value [1] was 473.9 ± 28.2 mg/dL and the “Concentration of blood glucose 24 h” value [1] was 585.6 ± 15.0 mg/dL. For the same compound, the “Concentration of blood glucose 0 h” value [1] was 551.9 ± 18.2 mg/dL, the “Concentration of blood glucose (random)” value (0.5 mg/kg) was 437.9 ± 23.9 mg/dL and the “Concentration of fasting blood glucose, the 9th day” value (1.0 mg/kg) was 201.2 ± 11.4 mg/dL. For the same compound, the “Concentration of fasting blood glucose, the 22nd day” value (1.0 mg/kg) was 224.4 ± 17.6 mg/dL, the HbA1c (1.0 mg/kg) was 5.9 ± 0.6 % and the “AUC of blood glucose” value (1.0 mg/kg, OGTT on the 9th day) was 410.6 ± 15.6 mg·h/dL. The “Concentration of blood glucose 0 min” value (1.0 mg/kg, OGTT on the 9th day) was 201.2 ± 11.4 mg/dL, the “Concentration of blood glucose 30 min” value (1.0 mg/kg, OGTT on the 9th day) was 253.9 ± 7.7 mg/dL and the “Concentration of blood glucose 60 min” value (1.0 mg/kg, OGTT on the 9th day) was 205.3 ± 9.8 mg/dL. The “Concentration of blood glucose 120 min” value (1.0 mg/kg, OGTT on the 9th day) was 158.6 ± 8.8 mg/dL, the “AUC of blood glucose” value (1.0 mg/kg, non-fasting, 6th day, 0-24 h) was 10310 ± 308.4 mg·h/dL and the “Concentration of blood glucose 1 h” value (1.0 mg/kg, non-fasting, 6th day, 1 h after administration) was 417.1 ± 14.8 mg/dL. The “Concentration of blood glucose 2 h” value [2] was 409.8 ± 16.7 mg/dL, the “Concentration of blood glucose 4 h” value [2] was 323.8 ± 16.1 mg/dL and the “Concentration of blood glucose 8 h” value [2] was 368.3 ± 19.4 mg/dL. For the same compound, the “Concentration of blood glucose 24 h” value [2] was 550.3 ± 17.0 mg/dL, the “Concentration of blood glucose 0 h” value [2] was 444.1 ± 19.2 mg/dL and the “Concentration of blood glucose (random)” value (1.0 mg/kg) was 395.8 ± 24.1 mg/dL. For the same compound, the “Concentration of fasting blood glucose, the 9th day” value (2.0 mg/kg) was 184.9 ± 18.3 mg/dL, the “Concentration of fasting blood glucose, the 22nd day” value (2.0 mg/kg) was 211.9 ± 17.8 mg/dL and the HbA1c (2.0 mg/kg) was 6.0 ± 0.4 %. For the same compound, the “AUC of blood glucose” value (2.0 mg/kg, OGTT on the 9th day) was 393.9 ± 25.6 mg·h/dL, the “Concentration of blood glucose 0 min” value (2.0 mg/kg, OGTT on the 9th day) was 184.9 ± 18.3 mg/dL and the “Concentration of blood glucose 30 min” value (2.0 mg/kg, OGTT on the 9th day) was 246.0 ± 11.7 mg/dL. The “Concentration of blood glucose 60 min” value (2.0 mg/kg, OGTT on the 9th day) was 205.1 ± 12.6 mg/dL, the “Concentration of blood glucose 120 min” value (2.0 mg/kg, OGTT on the 9th day) was 141.7 ± 14.6 mg/dL and the “AUC of blood glucose” value (2.0 mg/kg, non-fasting, 6th day, 0-24 h) was 11326 ± 225.5 mg·h/dL. The “Concentration of blood glucose 1 h” value (2.0 mg/kg, non-fasting, 6th day, 1 h after administration) was 414.1 ± 18.3 mg/dL, the “Concentration of blood glucose 2 h” value [3] was 460.2 ± 15.0 mg/dL and the “Concentration of blood glucose 4 h” value [3] was 390.6 ± 28.2 mg/dL. The “Concentration of blood glucose 8 h” value [3] was 434.0 ± 18.8 mg/dL, the “Concentration of blood glucose 24 h” value [3] was 559.3 ± 10.4 mg/dL and the “Concentration of blood glucose 0 h” value [3] was 473.0 ± 16.2 mg/dL. For the same compound, the “Concentration of blood glucose (random)” value (2.0 mg/kg) was 391.2 ± 26.0 mg/dL, the “Duration of hypoglycemic effect” value (6th day, dapagliflozin 2.0 mg/kg, Compound 2 0.25-2.0 mg/kg) was “still had a good hypoglycemic effect after 8-24 h” and the “Concentration of urine glucose” value (continuous administration for 16 days, 0.25-2.0 mg/kg, non-fasting, 1 h after administration) was “significantly increase”. For the same compound, the “Effect on body weight, food intake and water intake” value (continuous administration for 22 days, 0.25-2.0 mg/kg) was “no obvious effect” and the “Blood glucose level and AUC after glucose administration” value (single administration, 0.25, 0.5, 1.0 and 2.0 mg/kg) was “significantly lower”.
